Legend:
Assay type in all cases: cell-based
LNCaP = assay: Cell growth inhibition assay, prostate cancer cell line LNCaP (medium with 10 ng/mL IL-6); conditions: Homo sapiens, medium supplemented with 10 ng/mL of IL-6, 10,000 cells/well
AGS = assay: Cell growth inhibition assay, stomach cancer cell line AGS; conditions: Homo sapiens; AGS stomach cancer cell line, 3,000 cells/well
Method: The inhibitory effects of the compounds of the present invention against the growth of cancer cells were evaluated as shown below. The cancer cell lines including stomach cancer cell line (AGS), breast cancer cell lines (MDA-MB-231, MDA-MB-468, and BT-549), prostate cancer cell lines (LNCaP and DU-145), colon cancer cell line (HCT116), ovarian cancer cell line (SW626), liver cancer cell line (Hep3B), kidney cancer cell line (ACHN), lung cancer cell line (NCI-H23) and blood cancer cell lines (HEL92.1.7 and U266) were cultured under the protocol provided by each supplier. A medium supplemented with 10 ng/mL of IL-6 was used for LNCaP, a prostate cancer cell line, when treated with a drug. Each type of cells to be used in experiments were sub-cultured in a 96-well plate by counting the exact number of cells using Tali™ Image-based Cytometer (Life Technologies). In a 96-well plate, AGS, HCT116, and DU-145 were employed with 3,000 cells/well; NCI-H23, SW626, Hep3B, ACHN, BT-549, MDA-MB-231, HEL92.1.7, and U266 were employed with 5,000 cells/well; and LNCaP and MDA-MB-468 were employed with 10,000 cells/well. The cells were treated with the compounds listed in Examples which were diluted in various concentrations. Upon completion of the compounds treatment, AGS, HCT116, SW626, DU145, NCI-H23, Hep3B, ACHN, BT-549, LNCaP, HEL92.1.7, and U266 cells were cultured at 37° C. under 5% CO2 for from 72 to 96 hours, and MDA-MB-231 and MDA-MB-468 cells were cultured at 37° C. in air for from 72 to 96 hours. Subsequently, the cells were observed under microscope and drug precipitation and particular findings were investigated and recorded. And then, the 96-well plate was placed at room temperature for 30 minutes, added with 20 μL/well of CellTiter-Glo solution (Cat No. G7573, Promega) and shaken for 10 minutes, followed by being subjected to the measurement using PHERAstar™ microplate reader (BMG LABTECH) according to the supplier's general luminometer protocol. Wells where only culture liquid added without cell plating were used as a negative control, whereas wells where culture liquid containing 0.1% DMSO instead of the compounds listed in Examples were used as a positive control.

STAT3 = target: T1, STAT3 (Homo sapiens, UniProt P40763); assay: STAT3 reporter gene assay (luciferase), LNCaP stable cell line (pSTAT3-TA-luc), IL-6 stimulation
T1 construct: plasmid pSTAT3-TA-luc), which contains a stably operating STAT3 promoter; endogenous in cells
T1 sequence (P40763 whole entry): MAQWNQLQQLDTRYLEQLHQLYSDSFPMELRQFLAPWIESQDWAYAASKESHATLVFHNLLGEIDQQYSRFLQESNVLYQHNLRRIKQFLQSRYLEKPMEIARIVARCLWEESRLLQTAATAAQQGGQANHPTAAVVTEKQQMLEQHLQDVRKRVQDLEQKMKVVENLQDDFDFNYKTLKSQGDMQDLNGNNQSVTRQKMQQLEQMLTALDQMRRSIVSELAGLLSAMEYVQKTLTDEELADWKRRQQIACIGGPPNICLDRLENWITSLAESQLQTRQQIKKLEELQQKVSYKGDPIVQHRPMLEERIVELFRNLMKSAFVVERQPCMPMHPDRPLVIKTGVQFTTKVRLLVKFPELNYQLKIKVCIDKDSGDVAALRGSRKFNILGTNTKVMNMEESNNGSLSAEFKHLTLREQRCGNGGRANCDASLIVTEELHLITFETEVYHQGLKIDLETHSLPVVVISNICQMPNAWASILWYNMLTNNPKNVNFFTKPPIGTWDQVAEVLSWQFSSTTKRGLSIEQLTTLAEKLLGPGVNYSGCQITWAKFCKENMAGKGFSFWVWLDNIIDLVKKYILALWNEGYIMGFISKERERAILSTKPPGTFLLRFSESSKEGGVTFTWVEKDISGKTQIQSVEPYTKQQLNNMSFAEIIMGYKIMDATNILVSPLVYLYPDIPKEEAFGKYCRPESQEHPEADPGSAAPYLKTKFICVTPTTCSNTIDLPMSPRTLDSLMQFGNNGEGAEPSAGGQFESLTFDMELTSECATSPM
Procedure, shortened: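 LNCaP cells stably carrying pSTAT3-TA-luc, in RPMI1640 with 3% DCC-FBS, were treated with compound and then stimulated with 10 ng/mL IL-6 for 24–48 h at 37 °C. Luciferase activity was measured in lysates. A parallel plate measured viability by CellTiter-Glo, with stimulated 0.1% DMSO wells as the positive control.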

DU-145 = assay: Cell growth inhibition assay, prostate cancer cell line DU-145; conditions: Homo sapiens, DU-145 prostate cancer cell line
Procedure, shortened: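 Luminescent CellTiter-Glo readout of viable cells after 72–96 h compound exposure (37° C., 5% CO2). Seeding: 3,000 cells/well for DU-145 and HCT116, 5,000 cells/well for SW626. Controls were medium without cells and 0.1% DMSO vehicle.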

HEL92.1.7 = assay: Cell growth inhibition assay, blood cancer cell line HEL92.1.7; conditions: Homo sapiens, HEL 92.1.7, HEL92.1.7 blood cancer cell line
Procedure, shortened: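 Cells were seeded at 3,000/well (HCT116, DU-145) or 5,000/well (SW626 and the others) and exposed to serial compound dilutions for 72 to 96 h at 37 °C under 5% CO2. Viability was read as CellTiter-Glo luminescence against 0.1% DMSO and cell-free wells.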

MDA-MB-231 = assay: Cell growth inhibition assay, breast cancer cell line MDA-MB-231; conditions: Homo sapiens; MDA-MB-231 breast cancer cell line, 5,000 cells/well

Row | Compound | IC50 (LNCaP) [µM] | IC50 (AGS) [µM] | IC50 (STAT3) [µM] | IC50 (DU-145) [µM] | IC50 (HEL92.1.7) [µM] | IC50 (MDA-MB-231) [µM]
1 | O=C(Nc1cccc(-c2ccccc2C(F)(F)F)c1)C1Cc2ccc([N+](=O)[O-])cc2N1 (stereo not drawn) [Example 230, 6-nitro-N-(2′-(trifluoromethyl)-[1,1′-biphenyl]-3-yl)indoline-2-carboxamide] | 2.7 | 17.6 | 1.1 |  |  | 
2 | COc1cncc(S(=O)(=O)c2cccc(NC(=O)c3cc4ccc(NS(C)(=O)=O)cc4[nH]3)c2)c1 [Example 407, N-(3-((5-methoxypyridin-3-yl)sulfonyl)phenyl)-6-(methylsulfonamido)-1H-indole-2-carboxamide] | > 10 | 45.5 | 5.7 |  |  | 
3 | CS(=O)(=O)Nc1ccc2c(c1)NC(C(=O)Nc1cccc(-c3ccc(F)cc3F)c1)C2 (stereo not drawn) [Example 261, N-(2′,4′-difluoro-[1,1′-biphenyl]-3-yl)-6-(methylsulfonamido)indoline-2-carboxamide] | 2.9 | 28.4 | 2.4 |  |  | 
4 | CS(=O)(=O)Nc1ccc2cc(C(=O)Nc3cccc(S(=O)(=O)c4cccnc4)c3)[nH]c2c1 [Example 404, 6-(methylsulfonamido)-N-(3-(pyridin-3-ylsulfonyl)phenyl)-1H-indole-2-carboxamide] | > 10 | 30.3 | > 10 |  |  | 
5 | Nc1ccc2cc(C(=O)Nc3cccc(-c4ccc(F)cc4F)c3)[nH]c2c1 [Example 271, 6-amino-N-(2′,4′-difluoro-[1,1′-biphenyl]-3-yl)-1H-indole-2-carboxamide] | 8.6 | 26.1 | 5.9 |  |  | 
6 | CS(=O)(=O)Nc1ccc2cc(C(=O)Nc3cccc(S(=O)(=O)c4ccccn4)c3)[nH]c2c1 [Example 403, 6-(methylsulfonamido)-N-(3-(pyridin-2-ylsulfonyl)phenyl)-1H-indole-2-carboxamide] | > 10 | 34.4 | 8.2 |  |  | 
7 | CS(=O)(=O)Nc1ccc2c(c1)NC(C(=O)Nc1cccc(-c3ccc(F)cc3C(F)(F)F)c1)C2 (stereo not drawn) [Example 262, N-(4′-fluoro-2′-(trifluoromethyl)-[1,1′-biphenyl]-3-yl)-6-(methylsulfonamido)indoline-2-carboxamide] | 9.8 | > 50 | 5.3 |  |  | 
8 | O=C(Nc1cccc(-c2ccccc2C(F)(F)F)c1)c1nc2cc([N+](=O)[O-])ccc2[nH]1 [Example 234, 5-nitro-N-(2′-(trifluoromethyl)-[1,1′-biphenyl]-3-yl)-1H-benzo[d]imidazole-2-carboxamide] | 1.56 | 1.6 | > 10 |  |  | 
9 | O=C(O)COc1ccc2cc(C(=O)Nc3cccc(-c4ccc(F)cc4F)c3)[nH]c2c1 [Example 256, 2-((2-((2′,4′-difluoro-[1,1′-biphenyl]-3-yl)carbamoyl)-1H-indol-6-yl)oxy)acetic acid] | > 10 | > 50 | > 10 |  |  | 
10 | O=C(Nc1cccc(-c2ccc(F)cc2F)c1)C1Cc2ccc([N+](=O)[O-])cc2N1 (stereo not drawn) [Example 231, N-(2′,4′-difluoro-[1,1′-biphenyl]-3-yl)-6-nitroindoline-2-carboxamide] | > 10 | 19.3 | 2.9 |  |  | 
11 | O=C(Nc1cccc(-c2ccc(F)cc2F)c1)c1nc2cc([N+](=O)[O-])ccc2[nH]1 [Example 233, N-(2′,4′-difluoro-[1,1′-biphenyl]-3-yl)-5-nitro-1H-benzo[d]imidazole-2-carboxamide] | > 10 | > 50 | > 10 |  |  | 
12 | CC(C)(c1cc(Br)cc(NC(=O)c2cc3cc(NS(C)(=O)=O)ccc3s2)c1)c1ccc(F)cc1F [Example 35, N-(3-bromo-5-(2-(2,4-difluorophenyl)propan-2-yl)phenyl)-5-(methylsulfonamido)benzo[b]thiophene-2-carboxamide] | 0.067 |  | 0.076 | 0.06 | 0.28 | 0.027
13 | CC(C)(c1cc(Br)cc(NC(=O)c2cc3ccc(NS(C)(=O)=O)cc3[nH]2)c1)c1ccc(F)cc1F [Example 15, N-(3-bromo-5-(2-(2,4-difluorophenyl)propan-2-yl)phenyl)-6-(methylsulfonamido)-1H-indole-2-carboxamide] | 0.29 |  | 0.12 | 0.25 | 1.8 | 0.068
14 | CS(=O)(=O)Nc1ccc2cc(C(=O)Nc3cc(Br)cc(-c4ccc(F)cc4F)c3)[nH]c2c1 [Example 302, N-(5-bromo-2′,4′-difluoro-[1,1′-biphenyl]-3-yl)-6-(methylsulfonamido)-1H-indole-2-carboxamide] | 2.5 |  | 0.4 | 0.57 | 2.7 | 0.11

The next lines start with the values.

Row | IC50 (LNCaP) [µM] | IC50 (AGS) [µM] | IC50 (STAT3) [µM] | IC50 (DU-145) [µM] | IC50 (HEL92.1.7) [µM] | IC50 (MDA-MB-231) [µM] | Compound
15 | > 10 | 15.2 | > 10 |  |  |  | COc1cc(C(F)(F)F)c(-c2cccc(NC(=O)c3cc4ccc(NS(C)(=O)=O)cc4[nH]3)c2)cc1C(N)=O [Example 377, N-(5′-carbamoyl-4′-methoxy-2′-(trifluoromethyl)-[1,1′-biphenyl]-3-yl)-6-(methylsulfonamido)-1H-indole-2-carboxamide]
16 | > 10 | 10.2 | > 10 |  |  |  | COC(=O)c1ccc(C(F)(F)F)c(-c2cccc(NC(=O)c3cc4ccc([N+](=O)[O-])cc4[nH]3)c2)c1 [Example 286, methyl 3′-(6-nitro-1H-indole-2-carboxamido)-6-(trifluoromethyl)-[1,1′-biphenyl]-3-carboxylate]
17 | > 10 | 23.6 | > 10 |  |  |  | COC(=O)c1ccc(C(F)(F)F)c(-c2cccc(NC(=O)c3cc4ccc(NS(C)(=O)=O)cc4[nH]3)c2)c1 [Example 287, methyl 3′-(6-(methylsulfonamido)-1H-indole-2-carboxamido)-6-(trifluoromethyl)-[1,1′-biphenyl]-3-carboxylate]
18 | > 10 | 20.9 | 7 |  |  |  | CS(=O)(=O)Nc1ccc2cc(C(=O)Nc3cccc(-c4ncccc4C(F)(F)F)c3)[nH]c2c1 [Example 290, 6-(methylsulfonamido)-N-(3-(3-(trifluoromethyl)pyridin-2-yl)phenyl)-1H-indole-2-carboxamide]
19 | 8.2 | 9.8 | 3.8 |  |  |  | CS(=O)(=O)Nc1ccc2cc(C(=O)Nc3cccc(C(F)(F)c4ccncc4)c3)[nH]c2c1 [Example 388, N-(3-(difluoro(pyridin-4-yl)methyl)phenyl)-6-(methylsulfonamido)-1H-indole-2-carboxamide]
20 | 3.1 | 11.3 | 1.9 |  |  |  | CS(=O)(=O)Nc1ccc2cc(C(=O)Nc3cccc(-c4ccc(C#N)cc4C(F)(F)F)c3)[nH]c2c1 [Example 284, N-(4′-cyano-2′-(trifluoromethyl)-[1,1′-biphenyl]-3-yl)-6-(methylsulfonamido)-1H-indole-2-carboxamide]
21 | > 10 | 20 | 3.3 |  |  |  | COc1ccc(S(=O)(=O)c2cccc(NC(=O)c3cc4ccc(NS(C)(=O)=O)cc4[nH]3)c2)cc1 [Example 394, N-(3-((4-methoxyphenyl)sulfonyl)phenyl)-6-(methylsulfonamido)-1H-indole-2-carboxamide]
22 | 6.2 | 13 | 1.9 |  |  |  | O=C(Nc1cccc(-c2ccccc2C(F)(F)F)c1)c1cc2ccc(NS(=O)(=O)CC(F)(F)F)cc2[nH]1 [Example 264, 6-(2,2,2-trifluoroethylsulfonamido)-N-(2′-(trifluoromethyl)-[1,1′-biphenyl]-3-yl)-1H-indole-2-carboxamide]
